# Data as given in article PMC10823475, “Design, Synthesis, and Evaluation of Inhibitors of Hedgehog Acyltransferase” (Journal of Medicinal Chemistry, 2024).
# Where “and” joins values, the source holds several entries; their conditions need not be identical. Equal values may be shown once.
# Columns and labels:
# [1] = molecular target: T1, purified HHAT (Homo sapiens, UniProt Q5VTY9); assay: Acyl-cLIP assay, inhibition of purified HHAT; assay type: biochemical; details: for LLEAcyl-cLIP: from Acyl-cLIP IC50 and clogDpH7.4; for IC50: purified HHAT, read-out: Acyl-cLIP Assay IC50 (CI95)
# T1 construct: made in house
# Experimental: The inhibitory potency of all 50 compounds against purified HHAT was quantified using the acylation-coupled lipophilic induction of polarization (acyl-cLIP) assay recently developed in our lab, a universally applicable assay for high-throughput analysis of protein–lipid transferases and hydrolases.[31],[40] In brief, in this assay a fluorescently labeled peptide based on the N-terminal sequence of SHH is incubated with N-dodecyl β-D-maltoside (DDM) solubilized purified HHAT, palmitoyl-CoA, and HHAT inhibitors. Binding of the lipidated peptide product to the DDM micelle results in decreased tumbling rate and an increase in polarization of fluorescence emission, enabling facile quantification of HHAT activity. Initially, % HHAT inhibition was determined at 50 μM and 25 μM for all analogues. […] HHAT is a 12-pass TM protein,[14] and we considered whether lipophilicity might bias inhibition; pIC50 values were compared to calculated log D, which indicated no significant correlation (SI, Table S1 and Figure S2). We concluded that lipophilicity is not a general driver of HHAT inhibitory potency.
# The acyl-cLIP assay has been described previously.[40] Briefly, SHH-FAM peptide was diluted in buffer A (100 mM MES, 20 mM NaCl, 1 mM DTT, 1 mM TCEP, 0.1% BSA, pH 6.5) to a concentration of 2 μM. Palmitoyl-CoA (Sigma-Aldrich) was diluted in buffer A to 7.5 μM and recombinant HHAT (obtained by following the published protocol[14]) in buffer B (20 mM HEPES, 350 mM NaCl, 1% DDM, 5% glycerol, pH 7.3) diluted to 44 μg/mL. 1.5 μL of a 50 mM inhibitor DMSO stock was diluted with 18.5 μL of DMSO and further serial diluted (1:1). For each condition, 6 μL of the HHAT working stock and […] of the SHH-peptide working stock were mixed with 3 μL of the corresponding inhibitor concentration or DMSO vehicle. Twelve μL/well of this mixture was split into four wells of a black 384 well plate. To start the reaction, 8 μL of the Pal-CoA working stock were added to each well and fluorescence anisotropy and the total fluorescence recorded on an EnVision Xcite 2104 (PerkinElmer) over 30 min (emission filter 1 = FITC FP P-pol 535; emission filter 2 = FITC S-pol 535; excitation filter: FITC FP 480; measurement height = 6.5 mm; detector gain = 0; high concentration gain). Initial rate constants were determined by linear regression and normalized to DMSO control and samples with buffer B instead of HHAT. IC50 values were extracted from the corresponding dose response curves using a “sigmoidal dose response (variable slope)” model in GraphPad Prism 5 (GraphPad Software, Inc.).
# [2] = MTS assay, cytotoxicity (72 h); assay type: cell-based; details: human, HEK293a SHH+ cells, 72 h; for CC50 at 72 h: read-out: MTS Assay (HEK293a SHH+) CC50 (CI95)
# Experimental: (§1) The survival of HEK293a SHH^+ cells is independent of HH signaling,[35] therefore, the cytotoxicity of analogues was tested using the MTS assay to investigate off-target toxicity. In this assay, HEK293a SHH^+ cells were treated with DMSO vehicle or varying concentrations of analogues for 72 h. Subsequently, a mixture of 1-methoxy phenazine methosulfate (PMS) and [3-(4,5-dimethylthiazol-2-yl)-5-(3-carboxymethoxyphenyl)-2-(4-sulfophenyl)-2H-tetrazolium] (MTS) was added to enable quantification of cell number via colorimetric analysis. […] Compounds 3, 17, 19, 32, 34, 38, and 45, which all contain a 2-((2-methylbutyl)amino)acetyl, were toxic to HEK293a SHH^+ cells, as were ureas 26, 40, and 41.
# (§2) HEK293a SHH^+ cells were plated at 5000 cells/well in a 96-well plate (Nunc) using a volume of 50 μL/well and cultured for 24 h as described. Cells were treated with 100 μL/well of either DMSO vehicle, Puromycin (2 μg/mL), or stated analogues (0.14–100 μM final) in DMEM supplemented with 10% FBS. After 72 h, 20 μL/well of a mixture of 1-methoxy phenazine methosulfate (PMS) and [3-(4,5-dimethylthiazol-2-yl)-5-(3-carboxymethoxyphenyl)-2-(4-sulfophenyl)-2H-tetrazolium] (MTS) at a ratio of MTS/PMS = 2/0.92 mg/mL in PBS was added and the plates were incubated for 3 h at 37 °C. Subsequently, the absorption at 490 nm was recorded using an EnVision Xcite 2104 (PerkinElmer), and the response was normalized to vehicle control and Puromycin treated samples. Dose response curves were fitted to a “sigmoidal dose response (variable slope)” model using GraphPad Prism 5 (GraphPad Software, Inc.).
# [3] = test system: HH signaling (HEK293a SHH+ conditioned media on SHH-Light2 cells); assay: Light2 dual-luciferase cell-based HH signaling assay (Firefly); details: Firefly luciferase, Light2 cells; read-out: HH signaling inhibition EC50 (CI95)
# Experimental: Subsequently, the effect of analogues on HH signaling was investigated using a cellular luciferase reporter assay. Light2 cells derived from NIH3T3 cells constitutively express Renilla luciferase as an internal control for cell density alongside Firefly luciferase under the control of a HH-responsive Gli promoter.[43] HEK293a SHH^+ cells were incubated with varying inhibitor concentrations and SHH-containing conditioned media transferred to the NIH3T3-Light2 cells to mimic paracrine signaling[30],[35] (Figure 6A).
# The Light2 cell-based signaling assay has been described previously.[35] Briefly, HEK293a SHH^+ cells were plated at 120,000 cells/well of a 12-well plate in a volume of 1 mL/well and cultured as described above. After 24 h, cells were washed with PBS, followed by addition of 1 mL of media containing 0.2% DMSO or varying inhibitor concentrations in DMSO (0.041–30 μM final). Additionally, SHH-Light2 cells were plated at 20,000 cells/well of a 96-well plate in 50 μL media. After another 24 h, 300 μL of the conditioned media were collected from each well of the treated HEK293a SHH^+ cells, centrifuged at 1000g for 10 min to remove detached cells and split into three wells of the SHH-Light2 cells (100 μL/well; 150 μL final volume in each well). The treated Light2 cells were cultured for another 48 h and subsequently washed with PBS. Firefly and Renilla luciferase activity was measured using the Dual-Luciferase reporter system (Promega Corporation, USA). Then 20 μL of 1× passive lysis buffer were added to each well. After 30 min at RT, 5 μL of each lysate were transferred to a white opaque 96-well plate. Then 20 μL/well of luciferase assay reagent II was added and the luminescence immediately recorded using a SpectraMax i3x plate reader (Molecular Devices LLC). Subsequently, 20 μL/well of 1× Stop&Glo substrate in Stop&Glo buffer was added and the luminescence immediately recorded for a second time. Data was evaluated using a “sigmoidal dose response (variable slope)” model in GraphPad Prism 5 (GraphPad Software, Inc.). The luminescence signal of the Firefly luciferase was normalized to the DMSO vehicle (100%) and the unconditioned media (0%) controls.
# [4] = test system: HEK293a SHH+ cells; assay: MTS assay, cytotoxicity (72 h); assay type: cell-based; details: for decrease in cell viability / cell survival: 12.5 μM
# Experimental: as §1, §2
# [5] = PAMPA parallel artificial membrane permeability assay; details: for recovery at 16 h, 10 µM / Papp at 16 h, 10 μM: PAMPA
# Experimental: Passive diffusion was estimated using the PAMPA method. […] The donor plate was a MultiScreen-IP Plate with 0.45 μm hydrophobe Immobilon-P Membrane (Millipore, #MAIPNTR10) and the acceptor plate was a MultiScreen 96-well Transport Receiver Plate (Millipore, #MATRNPS50). […] Acceptor pH was 7.4. All samples were analyzed against an external, matrix-matched, standard curve by LC-MS/MS with a Waters (Elstree, Herts. UK) Acquity H-class LC system coupled to a Waters TQ-S mass spectrometer. Permeability values (cm/s) were calculated using the following equation: [drawing 2] and VD = volume of donor; VA = volume of acceptor; area = surface area of the membrane · porosity.
# [6] = pH 5, PAMPA Papp pH 5, donor pH 5, 10 µM
# [7] = pH 5, PAMPA Permeability Class pH 5, donor pH 5, 10 µM
# T1 sequence (Q5VTY9 whole entry): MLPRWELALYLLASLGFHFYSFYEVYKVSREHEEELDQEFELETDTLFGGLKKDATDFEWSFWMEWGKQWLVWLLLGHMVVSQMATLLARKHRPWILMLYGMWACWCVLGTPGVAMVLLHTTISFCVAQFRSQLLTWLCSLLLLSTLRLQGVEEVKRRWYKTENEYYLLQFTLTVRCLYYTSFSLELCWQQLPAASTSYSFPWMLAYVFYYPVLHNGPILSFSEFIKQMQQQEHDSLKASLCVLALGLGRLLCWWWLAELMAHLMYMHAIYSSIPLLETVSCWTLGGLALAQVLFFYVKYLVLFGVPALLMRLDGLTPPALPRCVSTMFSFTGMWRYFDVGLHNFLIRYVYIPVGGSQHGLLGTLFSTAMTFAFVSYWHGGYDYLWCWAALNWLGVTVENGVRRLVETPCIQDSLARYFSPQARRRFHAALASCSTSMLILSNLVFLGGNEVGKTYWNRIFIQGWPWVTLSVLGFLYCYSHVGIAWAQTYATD
Compound,inhibition at 25 µM [1] [%],inhibition at 50 µM [1] [%],LLEAcyl-cLIP [1],IC50 [1],CC50 at 72 h [2] [µM],"viability at 72 h, 12.5 µM [2] [%]","viability at 72 h, 25 µM [2] [%]",EC50 [3] [µM],HHAT inhibition in the acyl-cLIP assay [1],toxicity to HEK293a SHH+ cells [4],further results
COc1ccccc1C1c2ccsc2CCN1C(C)=O (stereo not shown) [Compound 31],68 ± 4,81 ± 2,2.21,11.9 µM,16.5,60 ± 4,23 ± 1,> 30,,,
C=CC(=O)N1CCc2sccc2C1c1cccc(C)c1 (stereo not shown) [Compound 16],51 ± 7,62 ± 8,0.66,15 µM,19.8,51 ± 1,34 ± 3,2.96,,,
"COCCNC(=O)N1CCc2ccccc2C1c1ccccc1 (stereo not shown) [Compound 41, N-(2-Methoxyethyl)-1-phenyl-3,4-dihydroisoquinoline-2(1H)-carboxamide]",0,27 ± 3,,> 25 µM,20.2,83 ± 3,53 ± 2,,inactivity,toxic,
"CC(C)(C)NCC(O)COc1cccc2c1CC(O)C(O)C2 (stereo not shown) [Nadolol, reference compound]",,,,,,,,,,,"recovery at 16 h, 10 µM ([5]; pH 5): 97%; Papp at 16 h, 10 μM [5, 6]: < 0.4 ×10⁻⁶ cm/s; Papp at 16 h, 10 μM [5, 7]: < 5 ×10⁻⁶ cm/s; Papp at 16 h, 10 μM ([5]; pH 6.5, PAMPA Papp pH 6.5, donor pH 6.5, 10 µM): < 0.4 ×10⁻⁶ cm/s; Papp at 16 h, 10 μM ([5]; pH 6.5, PAMPA Permeability Class pH 6.5, donor pH 6.5, 10 µM): < 5 ×10⁻⁶ cm/s; recovery at 16 h, 10 µM ([5]; pH 7.4): 135%; Papp at 16 h, 10 μM ([5]; pH 7.4, PAMPA Papp pH 7.4, donor pH 7.4, 10 µM): < 0.3 ×10⁻⁶ cm/s; Papp at 16 h, 10 μM ([5]; pH 7.4, PAMPA Permeability Class pH 7.4, donor pH 7.4, 10 µM): < 5 ×10⁻⁶ cm/s"
"CCC(C)CNCC(=O)N1CCc2sccc2C1c1ccccc1O (stereo not shown) [Compound 34, 1-(4-(2-Hydroxyphenyl)-6,7-dihydrothieno[3,2-c]pyridin-5(4H)-yl)-2-((2-methylbutyl)amino)ethan-1-one]",92 ± 1,93 ± 1,3.35,,6.1,24 ± 1,20 ± 1,,,toxic,
"O=c1ccc2ccccc2o1 [Coumarin, reference compound]",,,,,,,,,,,"recovery at 16 h, 10 µM ([5]; pH 5): 99%; Papp at 16 h, 10 μM [5, 6]: 124 ×10⁻⁶ cm/s; Papp at 16 h, 10 μM [5, 7]: > 20 ×10⁻⁶ cm/s; recovery at 16 h, 10 µM ([5]; pH 6.5): 99%; recovery at 16 h, 10 µM ([5]; pH 7.4): 114%; PAMPA Papp pH 6.5 ([5]; donor pH 6.5, 10 µM): >eqm; PAMPA Permeability Class pH 6.5 ([5]; donor pH 6.5, 10 µM): >eqm; PAMPA Papp pH 7.4 ([5]; donor pH 7.4, 10 µM): >eqm; PAMPA Permeability Class pH 7.4 ([5]; donor pH 7.4, 10 µM): >eqm"
CC(=O)N1CCc2sccc2C1c1cccc(C)n1 (stereo not shown) [Compound 21],72 ± 3,82 ± 3,2.84,13.4 µM,> 100,98 ± 4,94 ± 3,5.46,,,
CCC(C)CNCC(=O)N1CCc2sccc2C1COc1cccc(C)c1 (stereo not shown) [Compound 3],52 ± 3,63 ± 4,3.16,1.44 µM,8.4,31 ± 2,12 ± 3,,,toxic,"fold more potent than analogues 19, 32, and 34 ([1]; meta-methyl on 4-position aromatic ring): 2–5 fold; decrease in cell viability / cell survival [4]: 69%"
CC(=O)N1CCc2sccc2C1c1ccccn1 (stereo not shown) [Compound 18],49 ± 1,72 ± 1,2.73,24 µM and 23.7 µM,> 100,97 ± 2,98 ± 2,,,,decrease in cell viability / cell survival [4]: < 30%
Cc1cccc(C2c3ccsc3CCN2C(=O)CNCCC(C)C)n1 (stereo not shown) [Compound 25],80 ± 5,86 ± 4,3.90,4.62 µM,15.3,74 ± 2,27 ± 4,4.25,,,
"CC(C)CCNC(=O)N1CCc2ccccc2C1c1ccccc1 (stereo not shown) [Compound 40, N-Isopentyl-1-phenyl-3,4-dihydroisoquinoline-2(1H)-carboxamide]",0,4 ± 5,,> 25 µM,1.8,14 ± 4,12 ± 3,,inactivity,toxic,
CC(=O)N1CCc2sccc2C1C1CCCCC1 (stereo not shown) [Compound 35],6 ± 7,8 ± 7,,> 25 µM,,54 ± 2,59 ± 3,,loss of activity,,
"C=CC(=O)N1CCn2cccc2C1c1ccccc1 (stereo not shown) [Compound 46, 1-(1-Phenyl-3,4-dihydropyrrolo[1,2-a]pyrazin-2(1H)-yl)prop-2-en-1-one]",7 ± 1,12 ± 1,,> 25 µM,> 100,96 ± 2,97 ± 2,,loss of potency,,
